# Laboratory results published in US20190308956A1, “PIPERAZINE DERIVATIVES AS ANTIVIRAL AGENTS WITH INCREASED THERAPEUTIC ACTIVITY” (SERVICIO ANDALUZ DE SALUD, priority 2016, published 2019).
# Key:
# HAdV16-GFP = assay: Plaque assay, HAdV16-GFP in 293β5 cells; assay type: cell-based; conditions: for Selectivity Index (SI) HAdV16: ratio CC50 to IC50, HAdV16
# Method: 1.5. Plaque assay. For low MOI infections, active compounds were further evaluated in a plaque assay. 293β5 cells were seeded in 6-well plates at 4×10^5 cells per well in duplicate for each condition. When cells reached 80-90% confluency, they were infected with HAdV5-GFP or HAdV16-GFP (0.06 vp/cell) and rocked for 2 h at 37° C. The inoculum was removed and the cells were washed once with PBS. The cells were then carefully overlaid with 4 ml/well of equal parts of 1.6% […] Difco Agar Noble (Becton, Dickinson & Co, Sparks, MD) and 2× EMEM (BioWhittaker) supplemented with 2x penicillin/streptomycin, 2× L-glutamine and 10% FBS. The mixture also contained compound in concentrations ranging from 5 to 1 μM. Following incubation for 7 days at 37° C., plates were scanned with a Typhoon 9410 imager (GE Healthcare Life Sciences), and plaques were quantified with ImageJ.43
# HAdV5-GFP = assay: Plaque assay, HAdV5-GFP in 293β5 cells; assay type: cell-based; conditions: for Selectivity Index (SI) HAdV5: ratio CC50 to IC50, HAdV5; for IC50: read-out: IC50 HAdV5; for inhibition at 10 µM: read-out: Percentage of plaque formation inhibition, HAdV5-GFP, 10 μM, 293β5 cell line
# Method in brief: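 293β5 cells infected with HAdV5-GFP at 0.06 vp/cell for 2 h at 37° C. Then overlaid with agar/EMEM containing compound (5 to 1 μM stated range; screen run at 10 μM). After 7 days at 37° C., GFP plaques imaged and counted relative to DMSO control.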
# wild-type HAdV5 = assay: Virus yield reduction (burst assay, TCID50), HAdV5; assay type: cell-based; conditions: 50 μM, A549 cells, 48 h, yield with DMSO divided by yield with compound
# Method: (§1) 1.8. Virus yield reduction. The effect of the active compounds on virus production was evaluated in a burst assay A549 cells were infected with wild-type HAdV5 or HAdV16 (MOI 100) in the presence or absence of 50 μM compounds. After 48 h, cells were harvested and subjected to three rounds of freeze/thaw. Serial dilutions of clarified lysates were titrated on A549 cells and TCID50 values were calculated using an endpoint dilution method.46
# HCMV (AD169) = assay: HCMV infectivity assay by quantitative PCR; assay type: cell-based, human cytomegalovirus; conditions: Human betaherpesvirus 5, AD169, MRC5, MRC-5 cells, 72 h, qPCR, read-out: Inhibition of HCMV DNA replication
# Method: 1.9. HCMV infectivity assay by quantitative PCR. […] After 72 h of incubation at 37° C., DNA was purified from the cell lysate with the QlAamp DNA Mini Kit (QIAGEN, Valencia, Calif.) following the manufacturer's instructions. TaqMan primers and probes for a region of the US28 gene were designed with the GenScript Real-time PCR (TaqMan) Primer Design software (GenScript). Oligonucleotides sequences were CMV-F: 5′-[…]-3′; CMV-R: 5′-[…]-3′; and CMV-Probe: 5′-[…]-3′. Real-time PCR mixtures consisted of 10 μl the purified DNA, CMV-F at a concentration of 100 nM, CMV-R at a concentration of 300 nM, and CMV-Probe at a concentration of 50 nM in a total volume of 12.5 μl and mixed with 12.5 μl of KAPA PROBE FAST qPCR Master Mix (KAPABiosystems, MA). The PCR cycling protocol was 95° C. for 10 min followed by 40 cycles of 95° C. for 30 sec and 58° C. for 60 sec. Human glyceraldehyde-3-phosphate dehydrogenase (GAPDH) was used as internal control. Oligonucleotides sequences for GAPDH and conditions were those previously reported by Rivera et al.44 For quantification, gene fragment from US28 and GAPDH were cloned into the pGEM-T Easy vector (Promega) and known concentrations of template were used to generate a standard curve in parallel for each experiment. All assays were performed in a C1000 Thermal Cycler apparatus (BioRad).
# [1] = Cytotoxicity assay (alamarBlue cell viability); assay type: cell-based, Human; conditions: human, A549 cells, 48 h
# Method in brief: (§2)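 Actively dividing A549 cells exposed to compounds for 48 h, then alamarBlue (1/10th in culture medium) added for a further 4 h. CC50 taken as concentration giving 50% cytotoxicity; selectivity index = CC50/IC50, with IC50 from HAdV infection inhibition.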
# wild-type HAdV16 = assay: Virus yield reduction (burst assay, TCID50), HAdV16; assay type: cell-based; conditions: 50 μM, A549 cells, 48 h, yield with DMSO divided by yield with compound
# Method: as §1
# wild type HAdV5 = assay: HAdV5 DNA quantification by real-time PCR; assay type: cell-based; conditions: A549, 24 h, A549 cells, 24 h post-infection, qPCR, read-out: Inhibition of HAdV5 DNA replication
# Method: 1.6. DNA quantification by real-time PCR. For DNA quantification, A549 cells (150,000 cells/well in a 24 wells-plate) were infected with wild type HAdV5 or HAdV16 (100 vp/cell) and incubated for 2 h at 37° C. in complete DMEM. After the incubation, excess virus was removed and the medium was replaced with 500 μl of complete DMEM containing 50 μM of either compounds or the same volume of DMSO (positive control). All samples were done in triplicate. After 24 h of incubation at 37° C., DNA was purified from the cell lysate with the QlAamp DNA Mini Kit (QIAGEN, Valencia, Calif.) following the manufacturer's instructions. TaqMan primers and probes for a region of the HAdV5 hexon were designed with the GenScript Real-time PCR (TaqMan) Primer Design software (GenScript). Oligonucleotides sequences were AdF: 5′-[…]-3′; AdR: 5′-[…]-3′; and AdProbe: 5′-[…]-3′. […]
# Human glyceraldehyde-3-phosphate dehydrogenase (GAPDH) gene was used as internal control. Oligonucleotides sequences for GAPDH and conditions were those previously reported by Rivera et al.44 For quantification, gene fragments from hexon and GAPDH were cloned into the pGEM-T Easy vector (Promega) and known concentrations of template were used to generate a standard curve in parallel for each experiment. […]
# A549 cells = assay: Cytotoxicity assay (alamarBlue cell viability); assay type: cell-based, Human; conditions: A549 cells, 48 h; read-out: CC50
# Method in brief: as §2
SMILES,IC50 (HAdV16-GFP) [µM],Selectivity Index (SI) HAdV16 (HAdV16-GFP),Selectivity Index (SI) HAdV5 (HAdV5-GFP),IC50 (HAdV5-GFP) [µM],inhibition at 10 µM (HAdV5-GFP) [%],Virus yield reduction HAdV5 (wild-type HAdV5) [fold],inhibition at 50 µM (HCMV (AD169)) [%],CC50 at 48 h [1] [µM],Virus yield reduction HAdV16 (wild-type HAdV16) [fold],inhibition at 50 µM (wild type HAdV5) [%],CC50 (A549 cells) [µM]
"O=C(c1cc2ccccc2o1)N1CCN(C(=O)Nc2cc(C(F)(F)F)ccc2Cl)C(c2ccccc2)C1 (centres unmarked) [Compound 65, 4-(Benzofuran-2-carbonyl)-1-[(2-chloro-5-trifluoromethylphenyl)aminocarbonyl]-2 phenylpiperazine]",1.8 ± 0.2,72.7,116.2,1.1 ± 0.05,96 to 100,60.3 ± 15.2,98.2 ± 0.38,131 ± 17.8,33.2 ± 7.3,33.1 ± 0.5,–
"N#Cc1ccc(NC(=O)N2CCN(C(=O)c3cc4ccccc4o3)CC2c2ccccc2)cc1 (centres unmarked) [Compound 63, 4-(Benzofuran-2-carbonyl)-1-[(4-cyanophenyl)aminocarbonyl]-2-phenylpiperazine]",3.9 ± 1.12,51.2,42.7,4.7 ± 0.11,96 to 100,16.9 ± 5.2,99.9 ± 0.05,199.8 ± 0.26,60.9 ± 12.5,–,199.8 ± 0.26
